Results published in patent US20240158446A1, “CYCLIC COMPOUND HAVING SELECTIVE INHIBITORY ACTION ON KRAS OVER HRAS AND NRAS” (CHUGAI SEIYAKU KABUSHIKI KAISHA, priority 2021, published 2024).

How the values were obtained:
[1] = target: GDP-bound NRAS wild-type protein (Homo sapiens, UniProt P01111); test: Binding to NRAS by surface plasmon resonance (SPR), Single Cycle Kinetics; details: SPR; for NRAS/KRAS (ratio of KD value for NRAS to KD value for KRAS): GDP-bound NRAS wild-type protein vs GDP-bound KRAS wild-type protein
Sequence of GDP-bound NRAS wild-type protein (P01111 whole entry): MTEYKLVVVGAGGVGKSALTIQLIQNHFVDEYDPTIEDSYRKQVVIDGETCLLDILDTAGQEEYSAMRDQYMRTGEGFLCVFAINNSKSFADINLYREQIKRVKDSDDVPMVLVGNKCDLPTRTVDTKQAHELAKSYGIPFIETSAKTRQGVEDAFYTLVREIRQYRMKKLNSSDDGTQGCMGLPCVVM

[2] = target: GDP-bound HRAS wild-type protein (Homo sapiens, UniProt P01112); test: Binding to HRAS by surface plasmon resonance (SPR), Single Cycle Kinetics; details: SPR; for HRAS/KRAS (ratio of KD value for HRAS to KD value for KRAS): GDP-bound HRAS wild-type protein vs GDP-bound KRAS wild-type protein
Sequence of GDP-bound HRAS wild-type protein (P01112 whole entry): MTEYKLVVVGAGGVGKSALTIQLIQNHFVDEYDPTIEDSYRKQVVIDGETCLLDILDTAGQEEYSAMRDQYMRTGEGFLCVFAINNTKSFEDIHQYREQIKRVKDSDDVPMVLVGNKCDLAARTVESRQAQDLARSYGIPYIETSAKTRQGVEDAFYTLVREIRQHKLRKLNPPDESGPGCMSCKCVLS

| Structure (SMILES) | NRAS/KRAS (ratio of KD value for NRAS to KD value for KRAS) ([1]; KD ratio class) | HRAS/KRAS (ratio of KD value for HRAS to KD value for KRAS) ([2]; KD ratio class) | NRAS/KRAS (ratio of KD value for NRAS to KD value for KRAS) [1] | HRAS/KRAS (ratio of KD value for HRAS to KD value for KRAS) [2] | other results |
| --- | --- | --- | --- | --- | --- |
| CCO[C@@H]1C[C@H]2C(=O)NC3(CCC3)C(=O)N(C)[C@@H](C3CCCC3)C(=O)N(C)[C@H](C(=O)N(C)C)CC(=O)N(C)[C@@H](CC3CC3)C(=O)N[C@@H]([C@@H](C)CC)C(=O)N(C)CC(=O)N(C)[C@H]3C/C=C\CCN(C3=O)[C@@H](Cc3ccc(F)cc3C)C(=O)N(C)CC(=O)N[C@@H](CCc3cc(F)c(C(F)(F)F)c(F)c3)C(=O)N2C1 [PP1528] | A (a compound having 10 or more and less than 20 is denoted as A) | B (a compound having 3 or more and less than 10 is denoted as B) | – | – | – |
| CCO[C@@H]1C[C@H]2C(=O)NC3(CCC3)C(=O)N(C)[C@@H](C3CCCC3)C(=O)N(C)[C@H](C(=O)N(C)C)CC(=O)N(C)[C@@H](CC3CCCC3)C(=O)N[C@@H]([C@@H](C)CC)C(=O)N(C)CC(=O)N(C)[C@H]3C/C=C\CCN(C3=O)[C@@H](Cc3ccc(F)cc3C)C(=O)N(C)CC(=O)N[C@@H](CCc3cc(F)c(C(F)(F)F)c(F)c3)C(=O)N2C1 [PP1530] | A (a compound having 10 or more and less than 20 is denoted as A) | B (a compound having 3 or more and less than 10 is denoted as B) | – | – | – |
| C=CCCCCN(C)C(=O)[C@@H]1CC(=O)N(C)[C@@H](CC2CC2)C(=O)N[C@@H](CC=C)C(=O)N(C)CC(=O)N(C)[C@H]2C/C=C\CCN(C2=O)[C@@H](Cc2ccc(C(F)(F)F)cc2)C(=O)N(C)CC(=O)N[C@@H](CCc2cc(F)c(C(F)(F)F)c(F)c2)C(=O)N2C[C@H](OCC)C[C@H]2C(=O)NC2(CCC2)C(=O)N(C)[C@@H](C2CCCC2)C(=O)N1C [PP1554] | A (a compound having 10 or more and less than 20 is denoted as A) | A (a compound having 10 or more and less than 20 is denoted as A) | – | – | – |
| C=CC[C@@H]1NC(=O)[C@H](CC2CC2)N(C)C(=O)C[C@@H](C(=O)N(C)CC=C)N(C)C(=O)[C@H](C2CCCC2)N(C)C(=O)C2(CCC2)NC(=O)[C@@H]2C[C@@H](OCC)CN2C(=O)[C@H](CCc2cc(F)c(C(F)(F)F)c(F)c2)NC(=O)CN(C)C(=O)[C@H](Cc2ccc(C(F)(F)F)cc2)N2CC/C=C\C[C@@H](C2=O)N(C)C(=O)CN(C)C1=O [PP1557] | A (a compound having 10 or more and less than 20 is denoted as A) | A (a compound having 10 or more and less than 20 is denoted as A) | – | – | – |
| CCO[C@@H]1C[C@H]2C(=O)NC3(CC(C)(C)C3)C(=O)N(C)[C@@H](C3CCCC3)C(=O)N(C)[C@H](C(=O)N(C)C)CC(=O)N(C)[C@@H](CC3CCCC3)C(=O)N[C@@H]([C@@H](C)CC)C(=O)N(C)CC(=O)N(C)[C@H]3C/C=C\CCN(C3=O)[C@@H](Cc3ccc(C(F)(F)F)cc3)C(=O)N(C)CC(=O)N[C@@H](CCc3ccc(C(F)(F)F)c(OC)c3)C(=O)N2C1 [PP1565] | A (a compound having 10 or more and less than 20 is denoted as A) | B (a compound having 3 or more and less than 10 is denoted as B) | – | – | – |
| CCO[C@@H]1C[C@H]2C(=O)NC3(CCC3)C(=O)N(C)[C@@H](C3CCCC3)C(=O)N(C)[C@H](C(=O)N(C)CC)CC(=O)N(C)[C@@H](CC3CCCC3)C(=O)N[C@@H]([C@@H](C)CC)C(=O)N(C)CC(=O)N(C)[C@H]3C/C=C\CCN(C3=O)[C@@H](Cc3ccc(C(F)(F)F)cc3)C(=O)N(C)CC(=O)N[C@@H](CCc3ccc(C(F)(F)F)c(OC)c3)C(=O)N2C1 [PP1573] | A (a compound having 10 or more and less than 20 is denoted as A) | A (a compound having 10 or more and less than 20 is denoted as A) | – | – | – |
| CCCC[C@H]1C(=O)N[C@@H]([C@@H](C)CC)C(=O)N(C)CC(=O)N(C)[C@H]2C/C=C\CCN(C2=O)[C@@H](Cc2ccc(C(F)(F)F)cc2)C(=O)N(C)CC(=O)N[C@@H](CCc2cc(F)c(C(F)(F)F)c(F)c2)C(=O)N2C[C@H](OCC)C[C@H]2C(=O)NC2(CCC2)C(=O)N(C)[C@@H](C2CCCC2)C(=O)N(C)[C@H](C(=O)N(CC)CC)CC(=O)N1C [PP1576] | AA (a compound having 20 or more is denoted as AA) | A (a compound having 10 or more and less than 20 is denoted as A) | – | – | – |
| CCCOC[C@H]1C(=O)N[C@@H]([C@@H](C)CC)C(=O)N(C)CC(=O)N(C)[C@H]2C/C=C\CCN(C2=O)[C@@H](Cc2ccc(C)cc2)C(=O)N(C)CC(=O)N[C@@H](CCc2cc(F)c(C(F)(F)F)c(F)c2)C(=O)N2C[C@H](OCC)C[C@H]2C(=O)NC2(CC(C)(C)C2)C(=O)N(C)[C@@H](C2CCCC2)C(=O)N(C)[C@H](C(=O)N(C)CC)CC(=O)N1C [PP1577] | B (a compound having 3 or more and less than 10 is denoted as B) | B (a compound having 3 or more and less than 10 is denoted as B) | – | – | – |
| CCCOC[C@H]1C(=O)N[C@@H]([C@@H](C)CC)C(=O)N(C)CC(=O)N(C)[C@H]2C/C=C\CCN(C2=O)[C@@H](Cc2ccc(C)cc2)C(=O)N(C)CC(=O)N[C@@H](CCc2cc(F)c(C(F)(F)F)c(F)c2)C(=O)N2C[C@H](OCC)C[C@H]2C(=O)NC2(CC(C)(C)C2)C(=O)N(C)[C@@H](C2CCCC2)C(=O)N(C)[C@H](C(=O)N(CC)CC)CC(=O)N1C [PP1578] | A (a compound having 10 or more and less than 20 is denoted as A) | A (a compound having 10 or more and less than 20 is denoted as A) | – | – | – |
| CCO[C@@H]1C[C@H]2C(=O)NC3(CC(C)(C)C3)C(=O)N(C)[C@@H](C3CCCC3)C(=O)N(C)[C@@H](C(C)C)CC(=O)N(C)[C@@H](CC3CC3)C(=O)N[C@@H]([C@@H](C)CC)C(=O)N(C)CC(=O)N(C)[C@H]3C/C=C\CCN(C3=O)[C@@H](Cc3ccc(C(F)(F)F)cc3)C(=O)N(C)CC(=O)N[C@@H](CCc3cc(F)c(C(F)(F)F)c(F)c3)C(=O)N2C1 [PP1594] | A (a compound having 10 or more and less than 20 is denoted as A) | A (a compound having 10 or more and less than 20 is denoted as A) | – | – | – |
| CC[C@H](C)[C@@H]1NC(=O)[C@H](CC(C)C)N(C)C(=O)C[C@@H](C(=O)N(C)C)N(C)C(=O)[C@H](C2CCCC2)N(C)C(=O)C2(CC(C)(C)C2)NC(=O)[C@@H]2C[C@H](C)CN2C(=O)[C@H](CCc2ccc(C(F)(F)F)c(OC)c2)NC(=O)CN(C)C(=O)[C@H](Cc2ccc(C)cc2)N2CC/C=C\C[C@@H](C2=O)N(C)C(=O)CN(C)C1=O [PP1905] | – | – | – | – | NRAS/KRAS (KD ratio) ([1]; ratio of KD for GDP-bound NRAS wild-type protein to KD for KRAS): A (a compound having 10 or more and less than 20 is denoted as A); HRAS/KRAS (KD ratio) ([2]; ratio of KD for GDP-bound HRAS wild-type protein to KD for KRAS): A (a compound having 10 or more and less than 20 is denoted as A) |
| CCCN(C)C(=O)[C@@H]1CC(=O)N(C)[C@@H](C2CC2)C(=O)N[C@@H]([C@@H](C)CC)C(=O)N(C)CC(=O)N(C)[C@H]2C/C=C\CCN(C2=O)[C@@H](Cc2ccc(C(F)(F)F)cc2)C(=O)N(C)CC(=O)N[C@@H](CCc2cc(F)c(C(F)(F)F)c(F)c2)C(=O)N2C[C@H](OCC)C[C@H]2C(=O)NC2(CC(C)(C)C2)C(=O)N(C)[C@@H](C2CCCC2)C(=O)N1C [PP2037] | – | – | A (a compound having 10 or more and less than 20 is denoted as A) | A (a compound having 10 or more and less than 20 is denoted as A) | – |
| CCC[C@H]1C(=O)N[C@@H]([C@@H](C)CC)C(=O)N(CCC)CC(=O)N(C)[C@H]2C/C=C\CCN(C2=O)[C@@H](Cc2ccc(C)cc2)C(=O)N(C)CC(=O)N[C@@H](CCc2ccc(C(F)(F)F)c(OC)c2)C(=O)N2C[C@H](OCC)C[C@H]2C(=O)NC2(CC(C)(C)C2)C(=O)N(C)[C@@H](C2CCCC2)C(=O)N(C)[C@H](C(=O)N(C)C)CC(=O)N1C [PP2054] | – | – | A (a compound having 10 or more and less than 20 is denoted as A) | A (a compound having 10 or more and less than 20 is denoted as A) | – |
| C#CC[C@H]1C(=O)N[C@@H]([C@@H](C)CC)C(=O)N(C)CC(=O)N(C)[C@H]2C/C=C\CCN(C2=O)[C@@H](Cc2ccc(C(F)(F)F)cc2)C(=O)N(C)CC(=O)N[C@@H](CCc2ccc(C(F)(F)F)c(OC)c2)C(=O)N2C[C@@H](C)C[C@H]2C(=O)NC2(CC(C)(C)C2)C(=O)N(C)[C@@H](C2CCCC2)C(=O)N(C)[C@H](C(=O)N(C)CCC)CC(=O)N1C [PP2057] | – | – | A (a compound having 10 or more and less than 20 is denoted as A) | A (a compound having 10 or more and less than 20 is denoted as A) | – |
| C=CCN1CC(=O)N(C)[C@H]2C/C=C\CCN(C2=O)[C@@H](Cc2ccc(C)cc2)C(=O)N(C)CC(=O)N[C@@H](CCc2ccc(C(F)(F)F)c(OC)c2)C(=O)N2C[C@H](OCC)C[C@H]2C(=O)NC2(CC(C)(C)C2)C(=O)N(C)[C@@H](C2CCCC2)C(=O)N(C)[C@H](C(=O)N(C)C)CC(=O)N(C)[C@@H](CC(C)C)C(=O)N[C@@H]([C@@H](C)CC)C1=O [PP2058] | – | – | A (a compound having 10 or more and less than 20 is denoted as A) | A (a compound having 10 or more and less than 20 is denoted as A) | – |
| C#CC[C@H]1C(=O)N[C@@H]([C@@H](C)CC)C(=O)N(C)CC(=O)N(C)[C@H]2C/C=C\CCN(C2=O)[C@@H](Cc2ccc(C(F)(F)F)cc2)C(=O)N(C)CC(=O)N[C@@H](CCc2ccc(C(F)(F)F)c(OC)c2)C(=O)N2C[C@@H](C)C[C@H]2C(=O)NC2(CCC2)C(=O)N(C)[C@@H](C2CCCC2)C(=O)N(C)[C@H](C(=O)N(C)CCC)CC(=O)N1C [PP2063] | – | – | AA (a compound having 20 or more is denoted as AA) | A (a compound having 10 or more and less than 20 is denoted as A) | – |
